From paper PMC9264368, “Structural Analysis and Development of Notum Fragment Screening Hits” (ACS Chemical Neuroscience, 2022) come the findings set out here.

Series [1] concerns the target T1, Notum (Homo sapiens, UniProt Q6P988, C330S).
T1 sequence (Q6P988 81-451 C330S): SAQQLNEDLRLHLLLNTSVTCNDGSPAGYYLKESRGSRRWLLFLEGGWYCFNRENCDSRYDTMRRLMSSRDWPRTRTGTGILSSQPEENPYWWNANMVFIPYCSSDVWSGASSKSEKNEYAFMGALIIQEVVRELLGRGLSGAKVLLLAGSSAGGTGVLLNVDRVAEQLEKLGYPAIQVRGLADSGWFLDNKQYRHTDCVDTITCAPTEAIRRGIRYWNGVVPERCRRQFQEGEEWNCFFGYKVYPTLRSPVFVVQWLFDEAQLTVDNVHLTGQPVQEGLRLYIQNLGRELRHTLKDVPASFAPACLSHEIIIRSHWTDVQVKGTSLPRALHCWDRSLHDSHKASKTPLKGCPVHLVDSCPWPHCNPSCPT
Particulars: for fold improvement in Notum inhibition: versus parent: 7 vs 26, 16a vs 16, 15a vs 15, 7c vs 7b; for IC50: read-out: Notum IC50, Table S1, mean ± s.d. of N = 2-4 unless stated; for LE (ligand efficiency): LE = 1.4(−pIC50)/HAC; for LLE (lipophilic ligand efficiency): LLE = pIC50 – clogP; for LE / LLE: supplementary CSV.

The target of series [2] is T1, Notum. Kind of series: biochemical.
Where [3] appears, read: Notum IC50, OPTS substrate, 10-point curves 30 nM to 1 mM, mean ± s.d. of N = 2–4 unless stated, Table 1 and figures.
The mark [4] stands for this setting: IC50 (µM), supplementary CSV, Notum IC50 values for 1–58.
[5] abbreviates: pIC50, Table 1, Notum OPTS assay.

What is called IC50 is the point on the concentration scale where inhibition reaches its midpoint.

Where two headings read alike, the source gives them in different places.

`OCc1cn(-c2ccc(Cl)c(C(F)(F)F)c2Cl)nn1` [7c]: the “fold improvement in Notum inhibition” value in series [1] turned out to be 7 fold.

Consider `Cc1cccc2[nH]c(NC#N)nc12` [15a, N-(4-Methyl-1H-benzo[d]imidazol-2-yl)cyanamide], for which the half-inhibitory concentration (IC50) in series [2] (setting [3]) is 0.94 ± 0.06 µM. The “fold improvement in Notum inhibition” value in series [1] is 18 fold.

For the compound `Cn1c(NC#N)nc2ccccc21` [15b], the IC50 in series [1] turned out to be 5 ± 0.77 µM.

Consider `N#CNc1nc2c(Cl)cccc2[nH]1` [15c], for which the IC50 in series [1] came out at 2.2 ± 0.31 µM.

`N#CNc1nc2c(Br)cccc2[nH]1` [15d]: the IC50 in series [1] was determined as 2.3 ± 0.54 µM.

Consider `N#CNc1nc2c(C(F)(F)F)cccc2[nH]1` [15e], for which the IC50 in series [1] came to 12 ± 1.4 µM.

On to `COc1cccc2[nH]c(NC#N)nc12` [15f], for which, in series [1], the IC50 was 14 ± 1.3 µM.

On to `Cc1ccc2[nH]c(NC#N)nc2c1` [15g], for which the 50% inhibitory concentration (IC50) in series [1] worked out at 100 ± 4.4 µM.

For `N#CNc1nc2cc(Cl)ccc2[nH]1` [15h], the IC50 in series [1] came to 29 ± 16 µM.

For the compound `N#CNc1nc2cc(Br)ccc2[nH]1` [15i], the IC50 in series [1] came to 15 ± 3.7 µM.

In the case of `N#CNc1nc2cc(C(F)(F)F)ccc2[nH]1` [15j], the IC50 in series [1] was 36 ± 5.7 µM.

As for `Cc1cccc2c1nc(NC#N)n2C` [15k], in series [1], the IC50 came out at 9.3 ± 3.8 µM.

Turning to `Cc1cccc2nc(NC#N)n(C)c12` [15l], in series [1], the half-maximal inhibitory concentration (IC50) is 2.2 ± 0.48 µM.

Consider `Cc1ccc2[nH]c(NC#N)nc2c1C` [15m], for which, in series [1], the 50% inhibitory concentration (IC50) is 18 ± 5.1 µM.

Consider `FC(F)(F)c1cc(-c2cc[nH]n2)ccc1Cl` [16a], for which, in series [2] (setting [3]), 1.4 ± 0.1 µM corresponded to half-maximal inhibition (IC50). Besides, the “fold improvement in Notum inhibition” value in series [1] was found to be 2.3 fold.

The compound `FC(F)(F)c1cc(CNCc2ccc3c(c2)OCO3)ccc1Cl` [28a, 1-(Benzo[d][1,3]dioxol-5-yl)-N-(4-chloro-3-(trifluoromethyl)benzyl)methanamine] returned an IC50 in series [2] (setting [3]) of 16 ± 1.5 µM.

In the case of `CCNC(=O)Nc1cc(C)on1` [compound 1], the IC50 in series [2] (setting [4]) and in series [2] (setting [3]) was more than 1000 µM in each case.

Compound `CC(=O)Nc1cccc2nonc12` [compound 2] displayed an IC50 in series [2] (setting [3]) of 140 ± 31 µM. For the same compound, in series [1], the “LE (ligand efficiency)” value stood at 0.42, the “LLE (lipophilic ligand efficiency)” value came to 2.5, the LE is recorded as 0.42 and the LLE worked out at 2.5.

`OCc1ccc(-n2cnc3ccccc32)cc1` [compound 4, [4-(1H-1,3-Benzimidazol-1-yl-)phenyl]methanol] showed an IC50 in series [2] (setting [3]) of 54 ± 16 µM. Further, in series [1], the “LE (ligand efficiency)” value was determined as 0.35, the “LLE (lipophilic ligand efficiency)” value worked out at 1.7, the LE came to 0.35 and the LLE stood at 1.7.

Take `c1cnc(Oc2ccc(-c3cc[nH]n3)cc2)nc1` [compound 5, 2-[4-(1H-Pyrazol-3-yl)phenoxy]pyrimidine]: the IC50 in series [2] (setting [3]) was 480 ± 82 µM. For the same compound, in series [1], the “LE (ligand efficiency)” value is 0.25, the “LLE (lipophilic ligand efficiency)” value is recorded as 1.3, the LE worked out at 0.25 and the LLE is listed as 1.3.

As for `COC(=O)c1ccccc1Oc1ccc(N)cc1` [compound 6, Methyl 2-(4-aminophenoxy)benzoate], in series [2] (setting [3]), inhibition was half-maximal at 260 ± 120 µM (IC50). Also, in series [1], the “LE (ligand efficiency)” value amounted to 0.28, the “LLE (lipophilic ligand efficiency)” value turned out to be 0.9, the LE is reported as 0.28 and the LLE was 0.9.

Turning to `O=C(NCCc1ccncc1)NC1CCCCC1` [compound 9], the IC50 in series [2] (setting [4]) and in series [2] (setting [3]) was more than 1000 µM throughout.

In turn, `Cc1nc2ccccn2c1C(=O)NCC(C)C` [compound 10] came in with a concentration for half-maximal inhibition (IC50) in series [2] (setting [3]) of 700 ± 100 µM. In series [1], the “LE (ligand efficiency)” value was determined as 0.26, the “LLE (lipophilic ligand efficiency)” value is 0.6, the LE was 0.26 and the LLE is reported as 0.6.

With `Nc1ccc(S(=O)(=O)Nc2ccccn2)cc1` [compound 11, 4-Amino-N-(2-pyridin-2-yl)benzenesulfonamide], the IC50 in series [2] (setting [4]) and in series [2] (setting [3]) was more than 1000 µM each time.

In series [2] (setting [3]), `N#Cc1ccc(Cn2cnc3ccccc32)cc1` [compound 12, 4-(Benzimidazol-1-ylmethyl)benzonitrile] displayed an IC50 of 570 ± 20 µM. Also, in series [1], the “LE (ligand efficiency)” value came to 0.25, the “LLE (lipophilic ligand efficiency)” value was determined as 0.7, the LE was found to be 0.25 and the LLE worked out at 0.7.

`Nc1ccccc1OCc1ccccc1` [compound 13, 2-(Benzyloxy)aniline] yielded an IC50 in series [2] (setting [3]) of 280 ± 110 µM. Also, in series [1], the “LE (ligand efficiency)” value is listed as 0.33, the “LLE (lipophilic ligand efficiency)” value is listed as 0.6, the LE was found to be 0.33 and the LLE is given as 0.6.

Turning to `O=C(O)Cc1ccc(-c2ccccc2)cc1` [compound 14, 2-[(1,1’-Biphenyl)-4-yl]acetic acid], inhibition in series [2] (setting [3]) was half-maximal at 58 ± 8.2 µM (IC50). Also, in series [1], the “LE (ligand efficiency)” value is given as 0.33, the “LLE (lipophilic ligand efficiency)” value is 0.9, the LE was 0.33 and the LLE came to 0.9.

With `N#CNc1nc2ccccc2[nH]1` [compound 15], half-maximal inhibition in series [2] (setting [3]) (IC50) was put at 17 ± 0.9 µM. In series [1], the “LE (ligand efficiency)” value is on record as 0.56, the “LLE (lipophilic ligand efficiency)” value worked out at 3.5 and the LLE stood at 3.5.

`Oc1c(F)cc(F)cc1-c1cc[nH]n1` [compound 16]: the IC50 in series [2] (setting [3]) stood at 3.3 ± 0.4 µM. This compound also showed an IC50 in series [2] (setting [5]) of 3.16 µM. In series [1], the “LE (ligand efficiency)” value is listed as 0.55, the “LLE (lipophilic ligand efficiency)” value turned out to be 3.6, the LE came to 0.55 and the LLE was determined as 3.6.

For `COc1ccc(-c2cc[nH]n2)c(O)c1` [compound 17], it took 34 ± 5.7 µM to reach half-maximal inhibition in series [2] (setting [3]) (IC50). The compound further had an IC50 in series [2] (setting [5]) of 31.6 µM. In addition, in series [1], the “LE (ligand efficiency)” value turned out to be 0.51, the “LLE (lipophilic ligand efficiency)” value turned out to be 2.9, the LE was determined as 0.51 and the LLE amounted to 2.9.

In turn, `Nc1ccc(NCc2cccnc2)c(C(=O)O)c1` [compound 18] registered an IC50 in series [2] (setting [3]) of 63 ± 12 µM. In addition, in series [1], the “LE (ligand efficiency)” value stood at 0.32, the “LLE (lipophilic ligand efficiency)” value is given as 3.0, the LE amounted to 0.32 and the LLE was determined as 3.

On to `C[C@H]1CCCCN1C(=O)N1CCOCC1` [compound 19], for which, in series [2] (setting [3]), the IC50 amounted to 750 ± 17 µM. In series [1], the “LE (ligand efficiency)” value turned out to be 0.29, the “LLE (lipophilic ligand efficiency)” value stood at 1.2, the LE turned out to be 0.29 and the LLE came out at 1.2.

Take `Nc1nonc1N1CCCCC1` [compound 20]: the IC50 in series [2] (setting [3]) was determined as 110 ± 21 µM. Moreover, the IC50 in series [2] (setting [5]) is 126 µM. In series [1], the “LE (ligand efficiency)” value came to 0.46, the “LLE (lipophilic ligand efficiency)” value was found to be 2.7, the LE was found to be 0.46 and the LLE came to 2.7.

`Cc1ccc(CN(C)Cc2ccccc2)o1` [compound 21]: the IC50 in series [2] (setting [3]) turned out to be 930 ± 69 µM. In series [1], the “LE (ligand efficiency)” value is recorded as 0.26, the “LLE (lipophilic ligand efficiency)” value was -0.4, the LE amounted to 0.26 and the LLE was -0.4.

In the case of `CCOc1cccc(-c2nnc(N)s2)c1` [compound 22], the IC50 in series [2] (setting [3]) was 93 ± 7 µM. Besides, the IC50 in series [2] (setting [5]) is 100 µM. Moreover, in series [1], the “LE (ligand efficiency)” value turned out to be 0.38, the “LLE (lipophilic ligand efficiency)” value is on record as 1.8, the LE was found to be 0.38 and the LLE came to 1.8.

For `N#CCN1CCN(c2cccc(Cl)c2)CC1` [compound 23], half-maximal inhibition in series [2] (setting [3]) (IC50) was put at 600 ± 59 µM. Further, in series [1], the “LE (ligand efficiency)” value is 0.28, the “LLE (lipophilic ligand efficiency)” value is 0.7 and the LLE stood at 0.7.

For `NCc1cc(-c2ccccc2)no1` [compound 24], in series [2] (setting [3]), 12 ± 3.2 µM corresponded to half-maximal inhibition (IC50). For the same compound, in series [1], the “LE (ligand efficiency)” value amounted to 0.53, the “LLE (lipophilic ligand efficiency)” value was found to be 3.7, the LE is reported as 0.53 and the LLE was 3.7.

In turn, `CC(=O)Nc1ccc(Nc2ccccc2)cc1` [compound 25, N-(4-Anilinophenyl)acetamide] registered an IC50 in series [2] (setting [3]) of 86 ± 21 µM. For the same compound, in series [1], the “LE (ligand efficiency)” value was 0.36, the “LLE (lipophilic ligand efficiency)” value was 1.6, the LE was found to be 0.36 and the LLE worked out at 1.6.

Consider `CC(=O)Nc1ccc(OCC(=O)O)cc1` [compound 27, (4-Acetamidophenoxy)acetic acid], for which the IC50 in series [2] (setting [4]) and in series [2] (setting [3]) was more than 1000 µM each time.

Turning to `O=C(NO)OCc1ccccc1` [compound 29, Benzyl N-hydroxycarbamate], the “response in fluorescence in Notum OPTS assay” value in series [1] (at higher concentrations (>100 μM), likely assay interference) is given as “variable, supramaxial responses in fluoresence”.

Turning to `O=S1(=O)CCN(Cc2ccco2)CC1` [compound 30], the IC50 in series [2] (setting [4]) and in series [2] (setting [3]) was more than 1000 µM in each case.

For `O=C(O)COc1ccc(N2C(=O)CCC2=O)cc1` [compound 39], the IC50 in series [2] (setting [4]) and in series [2] (setting [3]) was more than 1000 µM throughout.

On to `CCC(=O)Nc1ccc(C)cc1O` [compound 42], for which the IC50 in series [2] (setting [4]) and in series [2] (setting [3]) was more than 1000 µM in each case.

With `CCOc1ccc(CC(=O)O)cc1` [compound 48], the half-maximal inhibitory concentration (IC50) in series [2] (setting [4]) and in series [2] (setting [3]) was more than 1000 µM each time.

Turning to `O=C(O)COCc1ccccc1` [compound 52], the IC50 in series [2] (IC50 (µM)) and in series [2] (setting [3]) was more than 1000 µM throughout.

Consider `O=C1CN(C(=O)COc2ccccc2)CCN1` [compound 56], for which the half-inhibitory concentration (IC50) in series [2] (setting [4]) and in series [2] (setting [3]) was more than 100 µM in each case.
